Experimental data from publication PMC6114104 (International Journal for Parasitology: Drugs and Drug …, 2018).
pEC50: −log10 of the molar value. Counter-ions that a name gives are not always drawn. Like-named read-outs stand apart in the source and are kept apart here. Marks after values point to notes of the source that are not given here.

Columns and labels:
[1] = system: BT cells (bovine turbinate cells); conditions: uninfected BT cells, 3 days; 100 μM maximum concentration tested
[2] = system: S. neurona + GFP/FLUC parasites; experiment: Luciferase-based S. neurona growth inhibition, EC50 determination; conditions: for TI (TC50/EC50): ratio of BT cell TC50 to S. neurona EC50
Cryptosporidium parvum = conditions: ref Bessoff et al., 2013; cited from earlier work
T. gondii = conditions: ref Dittmar et al., 2016; Wang et al., 2017; Bowden, unpublished data; cited from earlier work
P. falciparum = conditions: PubChem BioAssay; ref Wang et al., 2017; cited from earlier work
[3] = system: S. neurona + GFP/FLUC parasites; experiment: microbe, parasite or virus in culture; type: cell-based, Sarcocystis neurona; conditions: for Effect on S. neurona growth reflected by increases in FLUC activity: 10 μM HTS, not confirmed with secondary screening
S. neurona = conditions: ref Gargala et al., 2009, cited from earlier work
[4] = horses, ref DiMaio Knych et al., 2011, cited from earlier work
S. neurona parasites = conditions: ref Lindsay and Dubey, 1999; cited from earlier work
[5] = Sarcocystis neurona, 96 h, read-out: EC50 in μM (95% CI)

Row | SMILES | TC50 [1] | EC50 [2, 5] | TI (TC50/EC50) [2] | other results
1 | Oc1c(Cl)cc(Cl)c2cccnc12 [Chloroxine] | 16 µM | 2.5 µM | 6 | 
2 | CCCCCCNC(=O)n1cc(F)c(=O)[nH]c1=O [Carmofur] | >100 µM | 0.73 µM | 137 | Activity against Cryptosporidium parvum (Cryptosporidium parvum): active; Activity against T. gondii (T. gondii): active; Activity against P. falciparum (P. falciparum): active
3 | CCCSc1ccc2nc(NC(=O)OC)[nH]c2c1 [albendazole] |  |  |  | Effect on S. neurona growth reflected by increases in FLUC activity [3]: growth-enhancing
4 | COc1cc2nc(N3CCN(C(=O)c4ccco4)CC3)nc(N)c2cc1OC [Prazosin] | 45 µM | 6 µM | 8 | 
5 | CC(=O)Oc1ccccc1C(=O)Nc1ncc([N+](=O)[O-])s1 [nitazoxanide] |  | ~12 µM |  | Reported mean 90% inhibitory activity against S. neurona, in μM (S. neurona; approximate conversion): approximately 6.2 μM; Reported mean 90% inhibitory activity against S. neurona (S. neurona): 1.9 mg/L
6 | CCc1nc(N)nc(N)c1-c1ccc(Cl)cc1 [Pyrimethamine] | >100 µM | 3.9 µM | 26 | FLUC activity of treated parasites ([2]; 10 μM, measured every 2 days over 10-day incubation): severely diminished FLUC activity; pEC50 ([2]; Sarcocystis neurona, read-out: EC50 of pyrimethamine (HTS validation, Fig. 2B)): 5.49
7 | COc1cc(NC(C)CCCN)c2ncccc2c1 (stereo not drawn) [Primaquine phosphate] | 47 µM | 2.2 µM | 21 | 
8 | Oc1c(Cl)cc(Cl)c(Cl)c1Cc1c(O)c(Cl)cc(Cl)c1Cl [Hexachlorophene] | 56 µM | 2.8 µM | 20 | 
9 | CN1CCN(CC/C=C2/c3ccccc3Sc3ccc(S(=O)(=O)N(C)C)cc32)CC1 [Thiothixene] | 30 µM | 6.3 µM | 5 | 
10 | Cl.O=C1[C@H]2CCCC[C@H]2C(=O)N1CCCCN1CCN(c2nsc3ccccc23)CC1 [Perospirone HCl] | 86 µM |  | 25 | 
11 | c1ccc2[nH]c(-c3cscn3)nc2c1 [thibendazole] |  |  |  | Effect on S. neurona growth reflected by increases in FLUC activity [3]: growth-enhancing
12 | OCCN1CCN(CCCN2c3ccccc3Sc3ccc(Cl)cc32)CC1 [Perphenazine] | 14 µM | 3.3 µM | 4 | 
13 | Cc1ccc(-c2nc3ccc(C)cn3c2CC(=O)N(C)C)cc1 [zolpidem tartrate] |  |  |  | Effect on S. neurona growth reflected by increases in FLUC activity [3]: growth-enhancing
14 | O=C1CN(/N=C/c2ccc(-c3ccc([N+](=O)[O-])cc3)o2)C(O)=N1 [Dantrolene] | 52 µM | 0.065 µM | 800 | Peak plasma concentration ([4]; 500 mg capsules, converted): 85.95 nM; Peak plasma concentration ([4]; 500 mg capsules): 28.9 ± 21.6 ng/mL; Peak plasma concentration ([4]; 500 mg paste, converted): 112.4 nM; Peak plasma concentration ([4]; 500 mg paste): 37.8 ± 12.8 ng/mL; Time of peak plasma concentration after administration ([4]; both formulations (capsules and paste)): 3.8 h; EC50 ([2]; Sarcocystis neurona, read-out: EC50 for S. neurona inhibition in ng/ml): 21.9 ng/mL
15 | O=c1c(-c2ccccc2)c1-c1ccccc1 [Diphenylcyclopropenone] | 19 µM | 2.5 µM | 8 | 
16 | C[C@H]1[C@H](OC(=O)CCC(=O)O)O[C@@H]2O[C@@]3(C)CC[C@H]4[C@H](C)CC[C@@H]1[C@@]24OO3 [Artesunate] | >100 µM | 3.3 µM | 30 | 
17 | CC(C)/N=c1\cc2n(-c3ccc(Cl)cc3)c3ccccc3nc-2cc1Nc1ccc(Cl)cc1 [Clofazimine] | >100 µM | 3.7 µM | 27 | 
18 | O=C(c1ccc(F)cc1)C1CCN(CCn2c(=S)[nH]c3ccccc3c2=O)CC1 [Altanserin] |  | 3.5 µM | 29 | TC50 in μM [1]: >100 ^a μM
19 | CCN(CC)C(=S)SSC(=S)N(CC)CC [Disulfiram] | 20 µM | 0.15 µM |  | 
20 | O=c1[nH]cc(F)c(=O)[nH]1 [Fluorouracil] | 78 µM | 0.79 µM | 99 | Activity against Cryptosporidium parvum (Cryptosporidium parvum): active; Activity against T. gondii (T. gondii): active; Activity against P. falciparum (P. falciparum): active
21 | CN1CCCC(n2nc(Cc3ccc(Cl)cc3)c3ccccc3c2=O)CC1 (stereo not drawn) [Azelastine HCl] | 28 µM | 2.5 µM | 11 | 
22 | COc1cc(Cc2cnc(N)nc2N)cc(OC)c1OC [trimethoprim] |  | ~19 µM |  | inhibition at 10 µM ([3]; Sarcocystis neurona, read-out: % inhibition of parasite growth in HTS): ≤ 80%; Reported EC50 for S. neurona parasites in vitro (S. neurona parasites): 2.5 µg/mL
